Results on 23 compounds are retold here after ChEMBL document CHEMBL4725373, “Introduction of Scaffold Nitrogen Atoms Renders Inhibitors of the Malarial l-Lactate Transporter, PfFNT, Effective against the Gly107Ser Resistance Mutation” (J Med Chem, 2020).

A short description of test [1]: Inhibition of Plasmodium falciparum FNT expressed in Saccharomyces cerevisiae W303-1A del-jen1 ady2-del (MATa, can1-100, ade2-loc, his3-11-15, leu2-3,-112, trp1-1-1, ura3-1, jen1::kanMX4, ady2::hphMX4) assessed as reduction in [1-14C]-L-lactate uptake incubated for 10 to 15 mins followed by [1-14C]-L-lactate addition and measured after 30 secs by liquid scintillation counting method.

Test [2] can be described thus: Inhibition of Plasmodium falciparum FNT G107S mutant expressed in Saccharomyces cerevisiae W303-1A del-jen1 ady2-del (MATa, can1-100, ade2-loc, his3-11-15, leu2-3,-112, trp1-1-1, ura3-1, jen1::kanMX4, ady2::hphMX4) assessed as reduction in [1-14C]-L-lactate uptake incubated for 10 to 15 mins followed by [1-14C]-L-lactate addition and measured after 120 secs by liquid scintillation counting method.

The nature of test [3]: Inhibition of Plasmodium falciparum FNT expressed in Saccharomyces cerevisiae W303-1A del-jen1 ady2-del (MATa, can1-100, ade2-loc, his3-11-15, leu2-3,-112, trp1-1-1, ura3-1, jen1::kanMX4, ady2::hphMX4) assessed as reduction in [1-14C]-L-lactate uptake incubated for 20 mins followed by [1-14C]-L-lactate addition by liquid scintillation counting method.
For test [4], the system named is Plasmodium falciparum. The test is described as follows: Antiplasmodial activity against Plasmodium falciparum 3D7 assessed as reduction in parasitemia after 24 hrs by LSR II FACS method. It counts as functional, organism-based. Particulars: 3D7, 24 h. (In flow cytometry, cells or beads pass a laser one at a time.)
A short description of test [5]: Inhibition of Plasmodium falciparum FNT G107S mutant expressed in Saccharomyces cerevisiae W303-1A del-jen1 ady2-del (MATa, can1-100, ade2-loc, his3-11-15, leu2-3,-112, trp1-1-1, ura3-1, jen1::kanMX4, ady2::hphMX4) assessed as reduction in [1-14C]-L-lactate uptake incubated for 20 mins followed by [1-14C]-L-lactate addition by liquid scintillation counting method.

In test [6] the test system is Plasmodium falciparum. As to the kind of experiment: Antiplasmodial activity against Plasmodium falciparum 3D7 assessed as reduction in parasite regrowth at 0.45 uM incubated for 14 days followed by compound washout and measured after 7 days. It counts as functional, organism-based. As to conditions: time 14.0 day.
The subject of test [7] is Plasmodium falciparum. The test is described as follows: Antiplasmodial activity against Plasmodium falciparum 3D7 assessed as reduction in parasitemia incubated for 48 hrs supplemented with fresh medium containing compound at 24 hrs by LSR II FACS method. It counts as functional, organism-based.
Test [8] has as its system Plasmodium falciparum. The test is described as follows: Antiplasmodial activity against Plasmodium falciparum 3D7 assessed as reduction in parasite regrowth at 0.75 uM incubated for 14 days followed by compound washout and measured after 30 days. It counts as functional, organism-based. Particulars: time 14.0 day.

Active and inactive are the calls of the source. No cut-off for these calls is given here.

What is called IC50 is the concentration at which inhibition is half-maximal. `O=C(/C=C(\O)C(F)(F)C(F)(F)F)c1ccc[nH]1`: the 50% inhibitory concentration (IC50) came out at 160 nM in test [1] and 12 µM in test [2].
One may read the EC50 as the concentration at which the effect is half-maximal. As to `COc1ccc(C(=O)/C=C(\O)C(F)(F)C(F)(F)F)c(O)c1`, the figures for the IC50 in test [3] and in test [5] were 170 nM and 20 µM, respectively. Besides, in test [4], the EC50 was 140 nM. The outcome in test [6] was inactive.
Consider `COc1ccc(C(=O)/C=C(\O)C(F)(F)C(F)(F)F)cc1`, for which the IC50 turned out to be 140 nM in test [3] and 2.6 µM in test [5]. In addition, the concentration giving a half-maximal response (EC50) in test [4] was 3400 nM.
As for `O=C(/C=C(\O)C(F)(F)C(F)(F)F)c1ccc(Cl)cn1`, the values for the IC50 in test [1] and in test [2] were 230 nM and 0.51 µM, respectively. Besides, the 50% effective concentration (EC50) in test [7] came to 14 µM.
As for `COc1ccc(CCC(=O)/C=C(\O)C(F)(F)C(F)(F)F)cc1`, the IC50 was found to be 190 nM in test [1] and 6.3 µM in test [2].
Consider `O=C(/C=C(\O)C(F)(F)C(F)(F)F)c1cccnc1`, for which the IC50 in test [1] is 110 nM; in test [2], 0.63 µM. The EC50 in test [7] came out at 0.24 µM. Besides, in test [8], the outcome was Active.
With `Cn1ccc(C(=O)/C=C(\O)C(F)(F)C(F)(F)F)c1`, the IC50 in test [1] amounted to 130 nM; in test [2], 14 µM.
Take `O=C(/C=C(\O)C(F)(F)C(F)(F)F)/C=C/c1ccccc1`: the IC50 in test [1] worked out at 290 nM; in test [2] it was 26 µM.
On the same counts, the results for `O=C(/C=C(\O)C(F)(F)C(F)(F)F)c1cnccn1` are 460 nM and 1.2 µM.
`O=C(/C=C(\O)C(F)(F)CO)c1cccnc1`: the half-inhibitory concentration (IC50) in test [1] is 5500 nM.
With `Cc1[nH]nc(C(F)(F)F)c1Cc1sc2c(c1C(=O)N1C[C@](C)(O)CO1)c(=O)n(C)c(=O)n2C(C)C`, in test [7], the result was inactive.
With `O=C(/C=C(\O)C(F)(F)C(F)(F)F)c1ccncc1`, the figures for the 50% inhibitory concentration (IC50) in test [1] and in test [2] were 150 nM and 22 µM, respectively.
Regarding `COc1ccc(C(=O)/C=C(\O)C(F)(F)C(F)(F)F)cn1`, the IC50 came out at 110 nM in test [1] and 0.26 µM in test [2]. The EC50 in test [7] was 3.88 µM.
With `O=C(/C=C(\O)C(F)(F)C(F)(F)F)c1cc[nH]c1`, the half-inhibitory concentration (IC50) in test [1] was determined as 200 nM; in test [2], 13 µM.
In the case of `O=C(/C=C(\O)C(F)(F)C(F)(F)F)c1cccnn1`, the IC50 in test [1] came to 860 nM; in test [2] it was 3.8 µM.
In the same order, the values of `O=C(/C=C(\O)C(F)(F)C(F)(F)F)c1cc2ccccc2o1` are 190 nM and 17 µM.
Consider `O=C(/C=C(\O)C(F)(F)C(F)(F)F)c1cnc2ccccc2c1`, for which the IC50 in test [1] stood at 240 nM; in test [2], 96 µM.
With `O=C(/C=C(\O)C(F)(F)C(F)(F)F)c1ccccn1`, the half-inhibitory concentration (IC50) in test [1] was 150 nM; in test [2], 0.58 µM. Besides, the EC50 in test [7] was found to be 13.5 µM.
Regarding `CC(C)(O)CC(=O)/C=C(\O)C(F)(F)C(F)(F)F`, the half-maximal inhibitory concentration (IC50) in test [1] came to 1100 nM; in test [2], 490 µM.
In the same order, the values of `O=C(/C=C(\O)C(F)(F)C(F)(F)F)Nc1ccccc1` are 18000 nM and 378 µM.
As to `CCCCC(F)(F)/C(O)=C/C(=O)c1cccnc1`, the IC50 in test [1] came out at 360 nM; in test [2] it was 24 µM. The EC50 in test [7] turned out to be 20.1 µM.
With `COc1ccc(CC(=O)/C=C(\O)C(F)(F)C(F)(F)F)cc1`, the IC50 came out at 1900 nM in test [1] and 69 µM in test [2].
In the same order, the values of `Cc1ccc(C(=O)/C=C(\O)C(F)(F)C(F)(F)F)cn1` are 150 nM and 1.7 µM.
